Test system: E. Coli B
Assay: Antimicrobial sensitivity test by resistance signature (pulsed-voltage sampling)
Type: cell-based
Settings: 0.9 mL of 10^3 CFU/mL E. Coli B in LB Broth + 0.1 mL antibiotic, room temperature; control slope remains negative; FIGS. 7A-7D
Experimental: FIGS. 7A-7D depict signatures of microbial sample of 0.9 mL of a concentration of 10^3 CFU/mL of two-hour E. Coli B treated with 0.1 mL of antibiotics or antimicrobials and control samples in the absence thereof. What is common to all FIGS. 7A-7D is the slope for signatures with antibiotics or antimicrobials become positive, i.e., the resistance of the microbial sample increases, upon addition of the antibiotic or antimicrobial. The slope of the control samples remains negative.
In further detail, a difference in the degree of the slope change for the signature can be observed. Such differences are due to the type of antibiotic or antimicrobial, and its mechanism of action. For example, sulfamethoxazole, FIG. 7C, causes inhibition of DNA synthesis in the cell, thereby aiming essential cell functions. In contrast, azithromycin, FIG. 7B, inhibits […] in a bacterium, thereby acting on latent cell functions.
An overnight bacterial culture of E. coli B with a concentration of around 10^9 cells which had attained room temperature were diluted using LB Broth which had also attained room temperature to a final concentration of 10^3 cells. 0.9 ml of this solution was then placed into one sensor well which was connected to lead #1 of a reader unit. An additional 0.9 ml of the bacteria was placed into a second sensor well which was connected to lead #2 of a reader unit. […]

## Cc1cc(NS(=O)(=O)c2ccc(N)cc2)no1 [sulfamethoxazole]
  slope of the resistance signature upon addition of the antibiotic or antimicrobial: steeper than for azithromycin
